Data from patent US20250135006A1, “AMPHIPHILIC TLR7/8 ADJUVANTS AND USES THEREOF” (Pfizer Inc., priority 2023, published 2025).
pEC50: −log10 of the molar value.

Columns and labels:
[1] = molecular target: T1, human toll like receptor 7 (hTLR7) (Homo sapiens, UniProt Q9NYK1); test: hTLR7 in-vitro functional assay (HEK-Blue hTLR7 SEAP reporter); assay type: cell-based; conditions: HEK-Blue hTLR7 cells, overnight incubation
T1 construct: host or cells: HEK293 (HEK-Blue hTLR7)
T1 sequence (Q9NYK1 27-1049): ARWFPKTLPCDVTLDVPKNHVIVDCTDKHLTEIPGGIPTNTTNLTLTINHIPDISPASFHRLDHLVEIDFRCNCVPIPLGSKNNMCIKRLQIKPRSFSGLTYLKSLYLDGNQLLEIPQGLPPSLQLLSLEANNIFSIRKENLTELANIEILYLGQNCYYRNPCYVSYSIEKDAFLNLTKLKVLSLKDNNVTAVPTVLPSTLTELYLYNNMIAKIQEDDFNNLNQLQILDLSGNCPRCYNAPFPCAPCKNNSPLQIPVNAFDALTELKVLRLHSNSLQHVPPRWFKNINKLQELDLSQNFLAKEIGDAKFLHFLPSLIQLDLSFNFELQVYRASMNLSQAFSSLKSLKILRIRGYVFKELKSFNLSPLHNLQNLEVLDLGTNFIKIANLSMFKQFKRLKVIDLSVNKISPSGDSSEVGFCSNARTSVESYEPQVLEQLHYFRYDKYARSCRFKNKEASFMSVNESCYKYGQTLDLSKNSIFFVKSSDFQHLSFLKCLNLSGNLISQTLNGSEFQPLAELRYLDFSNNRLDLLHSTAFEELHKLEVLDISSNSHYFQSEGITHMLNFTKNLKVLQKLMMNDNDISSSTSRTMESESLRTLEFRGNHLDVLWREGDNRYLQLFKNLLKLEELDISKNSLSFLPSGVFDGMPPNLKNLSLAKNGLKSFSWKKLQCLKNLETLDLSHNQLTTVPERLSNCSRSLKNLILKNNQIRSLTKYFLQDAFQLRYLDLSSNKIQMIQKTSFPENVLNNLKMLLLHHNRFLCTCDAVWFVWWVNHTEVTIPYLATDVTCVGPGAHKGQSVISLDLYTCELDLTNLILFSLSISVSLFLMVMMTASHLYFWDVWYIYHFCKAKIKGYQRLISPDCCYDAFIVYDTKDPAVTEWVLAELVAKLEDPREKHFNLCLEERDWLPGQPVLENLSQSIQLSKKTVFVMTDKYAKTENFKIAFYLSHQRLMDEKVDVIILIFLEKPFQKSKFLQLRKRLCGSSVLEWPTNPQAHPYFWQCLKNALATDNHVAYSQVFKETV

[2] = molecular target: T2, human toll like receptor 8 (hTLR8) (Homo sapiens, UniProt Q9NR97); test: hTLR8 in-vitro functional assay (HEK-Blue hTLR8 SEAP reporter); assay type: cell-based; conditions: HEK-Blue hTLR8 cells, overnight incubation
T2 construct: host or cells: HEK293 (HEK-Blue hTLR8)
T2 sequence (Q9NR97 27-1041): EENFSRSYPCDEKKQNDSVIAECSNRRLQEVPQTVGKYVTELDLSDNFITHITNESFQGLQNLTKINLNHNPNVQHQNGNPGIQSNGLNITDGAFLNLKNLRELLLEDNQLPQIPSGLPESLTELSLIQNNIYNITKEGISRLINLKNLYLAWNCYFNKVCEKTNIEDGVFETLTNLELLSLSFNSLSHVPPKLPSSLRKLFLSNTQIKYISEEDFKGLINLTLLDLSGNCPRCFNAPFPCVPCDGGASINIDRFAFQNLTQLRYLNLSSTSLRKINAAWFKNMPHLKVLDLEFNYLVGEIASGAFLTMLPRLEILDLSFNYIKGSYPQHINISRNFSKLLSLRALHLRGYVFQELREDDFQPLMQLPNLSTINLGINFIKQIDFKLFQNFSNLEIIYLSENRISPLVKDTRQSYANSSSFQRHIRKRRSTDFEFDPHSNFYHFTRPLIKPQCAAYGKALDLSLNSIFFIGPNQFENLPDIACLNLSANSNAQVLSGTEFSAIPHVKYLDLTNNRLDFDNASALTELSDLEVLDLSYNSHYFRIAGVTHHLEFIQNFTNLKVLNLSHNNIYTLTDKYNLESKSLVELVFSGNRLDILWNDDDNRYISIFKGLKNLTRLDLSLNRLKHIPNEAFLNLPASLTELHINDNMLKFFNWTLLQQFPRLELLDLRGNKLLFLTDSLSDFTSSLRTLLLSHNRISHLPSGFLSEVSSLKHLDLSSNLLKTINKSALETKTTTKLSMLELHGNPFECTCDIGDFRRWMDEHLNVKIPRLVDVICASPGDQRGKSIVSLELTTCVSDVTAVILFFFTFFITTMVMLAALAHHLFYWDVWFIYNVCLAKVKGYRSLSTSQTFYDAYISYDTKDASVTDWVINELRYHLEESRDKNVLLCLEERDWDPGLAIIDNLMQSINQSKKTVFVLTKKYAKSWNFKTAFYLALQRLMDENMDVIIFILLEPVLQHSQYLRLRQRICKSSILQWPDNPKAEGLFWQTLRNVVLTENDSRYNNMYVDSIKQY

Compound | pEC50 [1] | pEC50 [2]
CCCCc1nc2c(N)nc3cc(CCCN4CCN(CCCOCCOCCOCCOCCOCCOCCOCCOCCNC(=O)O[C@H]5CC[C@@]6(C)C(=CC[C@H]7[C@@H]8CC[C@H]([C@H](C)CCCC(C)C)[C@@]8(C)CC[C@@H]76)C5)CC4)ccc3c2n1CC(C)(CO)CO [Compound 23, (20R)-cholest-5-en-3beta-yl {27-[4-(3-{4-amino-2-butyl-1-[3-hydroxy-2-(hydroxymethyl)-2-methylpropyl]-1H-imidazo[4,5-c]quinolin-7-yl}propyl)piperazin-1-yl]-3,6,9,12,15,18,21,24-octaoxaheptacosan-1-yl}carbamate] | 5.78 | 4.83
CCCCc1nc2c(N)nc3cc(CCCN4CCN(C(=O)CCOCCOCCOCCOCCOCCOCCOCCOCCOCCOCCOCCOCCOCCOCCOCCOCCOCCOCCOCCOCCOCCOCCOCCOCCOCCOCCOCCOCCOCCOCCOCCOCCOCCOCCOCCOCCNC(=O)CCOCCOCCOCCOCCNC(=O)CCCOc5c(C)c(C)c6c(c5C)CC[C@@](C)(CCC[C@H](C)CCC[C@H](C)CCCC(C)C)O6)CC4)ccc3c2n1CC(C)(CO)CO [Compound 24] | 6.87 | 5.62
CCCCc1nc2c(N)nc3cc(CCCN4CCN(C(=O)CCOCCOCCOCCOCCOCCOCCOCCOCCOCCOCCOCCOCCNC(=O)CCOCCOCCOCCOCCNC(=O)CCCOc5c(C)c(C)c6c(c5C)CC[C@@](C)(CCC[C@H](C)CCC[C@H](C)CCCC(C)C)O6)CC4)ccc3c2n1CC(C)(CO)CO [Compound 25, N-{39-[4-(3-{4-amino-2-butyl-1-[3-hydroxy-2-(hydroxymethyl)-2-methylpropyl]-1H-imidazo[4,5-c]quinolin-7-yl}propyl)piperazin-1-yl]-39-oxo-3,6,9,12,15,18,21,24,27,30,33,36-dodecaoxanonatriacontan-1-yl}-17-oxo-20-({(2R)-2,5,7,8-tetramethyl-2-[(4R,8R)-4,8,12-trimethyltridecyl]-3,4-dihydro-2H-1-benzopyran-6-yl}oxy)-4,7,10,13-tetraoxa-16-azaicosan-1-amide] | 6.51 | 5.08
CCCCc1nc2c(N)nc3cc(CCCN4CCN(CCCOCCOCCOCCOCCOCCOCCOCCOCCOCCOCCOCCOCCOCCOCCOCCOCCOCCOCCOCCOCCOCCOCCOCCOCCNC(=O)CCOCCOCCOCCOCCNC(=O)CCCOc5c(C)c(C)c6c(c5C)CC[C@@](C)(CCC[C@H](C)CCC[C@H](C)CCCC(C)C)O6)CC4)ccc3c2n1CC(C)(CO)CO [Compound 26, N-{75-[4-(3-{4-amino-2-butyl-1-[3-hydroxy-2-(hydroxymethyl)-2-methylpropyl]-1H-imidazo[4,5-c]quinolin-7-yl}propyl)piperazin-1-yl]-3,6,9,12,15,18,21,24,27,30,33,36,39,42,45,48,51,54,57,60,63,66,69,72-tetracosaoxapentaheptacontan-1-yl}-17-oxo-20-({(2R)-2,5,7,8-tetramethyl-2-[(4R,8R)-4,8,12-trimethyltridecyl]-3,4-dihydro-2H-1-benzopyran-6-yl}oxy)-4,7,10,13-tetraoxa-16-azaicosan-1-amide] | 6.39 | < 4.60
CCCCc1nc2c(N)nc3cc(CCCN4CCN(Cc5ccc(NC(=O)[C@H](C)NC(=O)[C@@H](NC(=O)COCCOCCNC(=O)O[C@H]6CC[C@@]7(C)C(=CC[C@H]8[C@@H]9CC[C@H]([C@H](C)CCCC(C)C)[C@@]9(C)CC[C@@H]87)C6)C(C)C)cc5)CC4)ccc3c2n1CC(C)(CO)CO [Compound 27, (3beta)-cholest-5-en-3-yl {(2S,5S)-1-((4-((4-(3-(4-amino-2-butyl-1-(3-hydroxy-2-(hydroxymethyl)-2-methylpropyl)-1H-imidazo[4,5-c]quinolin-7-yl)propyl)piperazin-1-yl)methyl)phenyl)amino)-5-isopropyl-2-methyl-1,4,7-trioxo-9,12-dioxa-3,6-diazatetradecan-14-yl}carbamate] | 5.51 | 5.53
CCCCc1nc2c(N)nc3cc(CCCN4CCN(C(=O)OCc5ccc(NC(=O)[C@H](CCCNC(N)=O)NC(=O)[C@@H](NC(=O)COCCOCCNC(=O)O[C@H]6CC[C@@]7(C)C(=CC[C@H]8[C@@H]9CC[C@H]([C@H](C)CCCC(C)C)[C@@]9(C)CC[C@@H]87)C6)C(C)C)cc5)CC4)ccc3c2n1CC(C)(CO)CO [Compound 28, 4-((12S,15S)-1-(((3beta)-cholest-5-en-3-yl)oxy)-12-isopropyl-1,10,13-trioxo-15-(3-ureidopropyl)-5,8-dioxa-2,11,14-triazahexadecan-16-amido)benzyl 4-(3-(4-amino-2-butyl-1-(3-hydroxy-2-(hydroxymethyl)-2-methylpropyl)-1H-imidazo[4,5-c]quinolin-7-yl)propyl)piperazine-1-carboxylate] | 5.72 | 5.35
CCCCc1nc2c(N)nc3cc(CCCN4CCN(Cc5ccc(NC(=O)[C@H](CCCNC(N)=O)NC(=O)[C@@H](NC(=O)COCCOCCNC(=O)O[C@H]6CC[C@@]7(C)C(=CC[C@H]8[C@@H]9CC[C@H]([C@H](C)CCCC(C)C)[C@@]9(C)CC[C@@H]87)C6)C(C)C)cc5)CC4)ccc3c2n1CC(C)(CO)CO [Compound 29, (3beta)-cholest-5-en-3-yl ((6S,9S)-1-amino-6-((4-((4-(3-(4-amino-2-butyl-1-(3-hydroxy-2-(hydroxymethyl)-2-methylpropyl)-1H-imidazo[4,5-c]quinolin-7-yl)propyl)piperazin-1-yl)methyl)phenyl)carbamoyl)-9-isopropyl-1,8,11-trioxo-13,16-dioxa-2,7,10-triazaoctadecan-18-yl)carbamate] | 6.28 | 5.30
